Source: ChEMBL document CHEMBL2069289, “Phosphodiesterase inhibitors. Part 4: design, synthesis and structure-activity relationships of dual PDE3/4-inhibitory fused bicyclic heteroaromatic-4,4-dimethylpyrazolones” (Bioorg Med Chem Lett, 2012)
The source made the active and inactive calls. The calls are words filed in the database; no cut-off is given here.

Legend:
[1] = target: 3',5'-cyclic-AMP phosphodiesterase 4B (Homo sapiens, UniProt Q07343); experiment: Inhibition of core catalytic domain of PDE4B
[2] = target: cGMP-inhibited 3',5'-cyclic phosphodiesterase 3A (Homo sapiens, UniProt Q14432); experiment: Inhibition of core catalytic domain of PDE3A
[3] = system: Cavia porcellus; experiment: Bronchodilatory activity in guinea pig assessed as reduction of histamine-induced bronchoconstriction at 0.3 mg/kg, iv relative to control; type: functional; set-up: scale not given: the % may be the effect or the level left
[4] = system: Cavia porcellus; experiment: Bronchodilatory activity in guinea pig assessed as reduction of histamine-induced bronchoconstriction at 0.1 mg/kg, po relative to control; type: functional; set-up: scale not given: the % may be the effect or the level left
[5] = species on record: Homo sapiens; experiment: Selectivity ratio of IC50 for core catalytic domain of PDE4B to IC50 for core catalytic domain of PDE3A

Sequence of 3',5'-cyclic-AMP phosphodiesterase 4B (Q07343 whole entry, the tested form may be a part): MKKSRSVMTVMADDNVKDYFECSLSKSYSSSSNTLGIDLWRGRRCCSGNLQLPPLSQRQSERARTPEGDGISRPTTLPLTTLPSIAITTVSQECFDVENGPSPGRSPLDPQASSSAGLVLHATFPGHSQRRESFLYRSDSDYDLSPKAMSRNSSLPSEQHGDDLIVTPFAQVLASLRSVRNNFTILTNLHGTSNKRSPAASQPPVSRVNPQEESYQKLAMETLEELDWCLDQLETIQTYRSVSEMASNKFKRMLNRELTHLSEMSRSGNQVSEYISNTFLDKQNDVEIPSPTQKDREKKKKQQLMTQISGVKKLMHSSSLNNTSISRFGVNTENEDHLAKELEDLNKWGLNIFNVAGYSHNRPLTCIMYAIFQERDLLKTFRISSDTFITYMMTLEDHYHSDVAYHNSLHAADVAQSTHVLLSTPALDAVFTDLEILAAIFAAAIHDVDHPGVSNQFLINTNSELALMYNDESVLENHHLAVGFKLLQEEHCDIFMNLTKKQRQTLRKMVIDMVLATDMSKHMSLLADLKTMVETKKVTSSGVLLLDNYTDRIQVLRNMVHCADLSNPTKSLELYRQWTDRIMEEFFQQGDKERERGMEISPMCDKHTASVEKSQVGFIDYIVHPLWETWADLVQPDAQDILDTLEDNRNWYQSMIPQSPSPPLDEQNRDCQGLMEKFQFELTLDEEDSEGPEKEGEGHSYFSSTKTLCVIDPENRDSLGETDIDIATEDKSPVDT
Sequence of cGMP-inhibited 3',5'-cyclic phosphodiesterase 3A (Q14432 whole entry, the tested form may be a part): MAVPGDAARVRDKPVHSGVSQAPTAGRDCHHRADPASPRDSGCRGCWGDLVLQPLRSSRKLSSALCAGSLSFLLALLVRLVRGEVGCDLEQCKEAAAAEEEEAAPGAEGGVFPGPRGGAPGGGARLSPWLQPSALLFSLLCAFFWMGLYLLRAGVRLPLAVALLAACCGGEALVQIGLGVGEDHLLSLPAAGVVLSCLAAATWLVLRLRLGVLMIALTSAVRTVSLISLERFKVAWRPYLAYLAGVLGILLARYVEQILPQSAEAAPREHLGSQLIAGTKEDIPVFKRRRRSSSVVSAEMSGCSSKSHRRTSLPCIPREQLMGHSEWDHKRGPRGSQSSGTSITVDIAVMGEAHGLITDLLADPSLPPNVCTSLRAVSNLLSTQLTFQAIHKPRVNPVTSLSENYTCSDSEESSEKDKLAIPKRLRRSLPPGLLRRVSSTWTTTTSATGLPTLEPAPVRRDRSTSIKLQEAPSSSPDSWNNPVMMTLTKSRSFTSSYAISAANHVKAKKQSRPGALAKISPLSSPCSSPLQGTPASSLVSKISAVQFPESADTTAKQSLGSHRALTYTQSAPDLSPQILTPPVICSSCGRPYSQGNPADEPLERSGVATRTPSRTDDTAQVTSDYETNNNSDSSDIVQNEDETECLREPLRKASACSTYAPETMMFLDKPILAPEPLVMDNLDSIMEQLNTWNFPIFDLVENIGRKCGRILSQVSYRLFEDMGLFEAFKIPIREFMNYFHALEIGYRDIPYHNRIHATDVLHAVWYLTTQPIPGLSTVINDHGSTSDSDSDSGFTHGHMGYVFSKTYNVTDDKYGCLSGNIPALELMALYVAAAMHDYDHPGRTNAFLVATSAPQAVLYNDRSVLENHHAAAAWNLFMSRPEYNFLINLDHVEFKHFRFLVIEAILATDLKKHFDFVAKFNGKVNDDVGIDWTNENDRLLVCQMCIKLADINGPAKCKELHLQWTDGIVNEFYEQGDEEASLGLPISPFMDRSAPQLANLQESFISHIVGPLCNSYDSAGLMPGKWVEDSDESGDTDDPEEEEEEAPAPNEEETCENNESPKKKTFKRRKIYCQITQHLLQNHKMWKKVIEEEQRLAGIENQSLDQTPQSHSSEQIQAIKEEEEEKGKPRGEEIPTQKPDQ

Row | SMILES | IC50 [1] | IC50 [2] | Activity [3] | Activity [4] | Ratio IC50 [5]
1 | COc1ccc(C2=NNC(=O)C2(C)C)c2cc(C(F)(F)F)oc12 | 360 nM | 1100 nM |  |  | 
2 | CCc1cc2c(C3=NNC(=O)C3(C)C)ccc(SC)n2n1 | 79 nM | 9010 nM |  |  | 
3 | CCc1ccc2c(C3=NNC(=O)C3(C)C)ccc(OC)c2n1 | 2580 nM | 10100 nM |  |  | 
4 | CCc1cc2c(C3=NNC(=O)C3(C)C)ccc(OC)n2n1 | 410 nM | 9210 nM |  |  | 
5 | COc1ccc(C2=NNC(=O)C2(C)C)c2[nH]c(C(F)(F)F)nc12 | 200 nM | 14100 nM |  |  | 
6 | CCc1cc2c(C3=NNC(=O)C3(C)C)ccc(C)n2n1 | 160 nM | 2370 nM |  |  | 
7 | COc1ccc(C2=NNC(=O)C2(C)C)c2ccnn12 | 2930 nM | 10800 nM |  |  | 
8 | COc1ccc(C2=NNC(=O)C2(C)C)c2cc(C(F)F)nn12 | 50 nM | 3280 nM |  |  | 
9 | COc1ccc(C2=NNC(=O)C2(C)C)n2cc(C(F)(F)F)nc12 | 150 nM | 140 nM | 100% | >70% | 
10 | CCc1cc2c(C3=NNC(=O)C3(C)C)ccc(C(C)=O)n2n1 | 7.5 nM | 2500 nM |  |  | 
11 | COc1ccc(C2=NNC(=O)C2(C)C)c2cc(C3CC3)nn12 | 150 nM | 6170 nM |  |  | 
12 | CCc1cc2c(C3=NNC(=O)CC3C)ccc(OC)n2n1 (racemic) | 470 nM | 11300 nM |  |  | 
13 | COc1ccc(C2=NNC(=O)C2(C)C)c2ccc(C(F)(F)F)nc12 | 1070 nM | 6650 nM |  |  | 
14 | COc1ccc(C2=NNC(=O)C2(C)C)c2cc(C(F)(F)F)nn12 | 110 nM | 4130 nM |  |  | 
15 | CCc1cc2c(C3=NNC(=O)C3(C)C)ccc(CC)n2n1 | 17 nM | 2000 nM |  |  | 
16 | COc1ccc(C2=NNC(=O)C2(C)C)c2cc(C(F)(F)F)sc12 | 690 nM | 5360 nM |  |  | 
17 | CCc1cc2c(C3=NNC(=O)C3(C)C)ccc(CO)n2n1 | 35 nM | 1590 nM |  |  | 
18 | COc1ccc(C2=NNC(=O)CC2C)c2cc(C(F)(F)F)nn12 (single isomer, unassigned; (-)) | 42 nM | 360 nM |  |  | 
19 | CCc1cc2c(C3=NNC(=O)C3(C)C)ccc(C(C)O)n2n1 (racemic) | 3.4 nM | 1630 nM |  |  | 
20 | CCc1cc2c(C3=NNC(=O)C3(C)C)ccc(NC)n2n1 | 15 nM | 75600 nM |  |  | 5000
21 | COc1ccc(C2=NNC(=O)C2(C)C)c2sc(C(F)(F)F)nc12 | 63 nM | 540 nM | 96% | inactive | 
